The values below come from ChEMBL document CHEMBL3272190, “(2-exo-3-endo)-2-Aryltropane-3-carboxylic esters, a new class of narcotic antagonists” (J Med Chem, 1978).

Series [1] deals with Rattus norvegicus. Briefly: Narcotic analgesic activity in rat assessed as inhibition of phenazocine-induced effect at 80 mg, sc by D'Amour-Smith tail flick test. It counts as functional.
The test system of series [2] is Mus musculus. The experiment in a line: Antiwrithing activity in sc dosed mouse assessed as prevention of phenyl-p-benzoquinone-induced abdominal constriction response. It counts as functional. As to conditions: Abdomen. Background: Writhing tests count abdominal constrictions after an irritant is injected.
Series [3] deals with Rattus norvegicus. The experiment in a line: Toxicity in rat assessed as mortality at 160 mg, sc. It counts as organism-based. The following applies: in vivo.
The test system of series [4] is Mus musculus. Briefly: Antiwrithing activity in sc dosed mouse assessed as prevention of acetylcholine-induced abdominal constriction response. As to conditions: Abdomen. The series is classed as functional.
The subject of series [5] is Rattus norvegicus. The experiment in a line: Narcotic analgesic activity in sc dosed rat assessed as inhibition of phenazocine-induced effect by D'Amour-Smith tail flick test. As to conditions: Rattus norvegicus, Tail, sc. It counts as functional.
The test system of series [6] is Rattus norvegicus. The experiment in a line: Induction of convulsion in rat at 120 mg/kg, sc. Also on record: dose 120 mg/kg, route subcutaneous. The series is classed as organism-based. As to conditions: in vivo.
In series [7] the test system is Mus musculus. The experiment in a line: Induction of convulsion in mouse at 100 mg/kg, sc. The series is classed as organism-based. The arrangement: dose 100 mg/kg, route subcutaneous. As to conditions: in vivo.

Molecules are shown by their SMILES.

Regarding `COC(=O)[C@H]1C[C@H]2CC[C@H]([C@H]1Cc1ccccc1)N2C` (racemic), in the series with Rattus norvegicus [1], the “inhibition (INH)” value was 69%. In addition, the ED50 with Mus musculus [2] worked out at 20 mg/kg; in the series with Mus musculus [4], 4.4 mg/kg; with Rattus norvegicus [5], 54 mg/kg. The Activity result in the series with Rattus norvegicus [3], in the series with Rattus norvegicus [6] and in the series with Mus musculus [7] was “Toxic” each time.

As usually defined, the ED50 is the midpoint of the dose-response relation.
